BindingDB's records for PubMed 9454827 (Sibia Neurosciences, 1998)

Legend:
[1] = target: Neuronal acetylcholine receptor subunit alpha-2 (Homo sapiens, UniProt Q15822)
[2] = target: Neuronal acetylcholine receptor subunit alpha-4 (Homo sapiens, UniProt P43681)
[3] = target: Neuronal acetylcholine receptor subunit alpha-3 (Homo sapiens, UniProt P32297)
Neuronal acetylcholine receptor subunit alpha-3, sequence (P32297 whole entry): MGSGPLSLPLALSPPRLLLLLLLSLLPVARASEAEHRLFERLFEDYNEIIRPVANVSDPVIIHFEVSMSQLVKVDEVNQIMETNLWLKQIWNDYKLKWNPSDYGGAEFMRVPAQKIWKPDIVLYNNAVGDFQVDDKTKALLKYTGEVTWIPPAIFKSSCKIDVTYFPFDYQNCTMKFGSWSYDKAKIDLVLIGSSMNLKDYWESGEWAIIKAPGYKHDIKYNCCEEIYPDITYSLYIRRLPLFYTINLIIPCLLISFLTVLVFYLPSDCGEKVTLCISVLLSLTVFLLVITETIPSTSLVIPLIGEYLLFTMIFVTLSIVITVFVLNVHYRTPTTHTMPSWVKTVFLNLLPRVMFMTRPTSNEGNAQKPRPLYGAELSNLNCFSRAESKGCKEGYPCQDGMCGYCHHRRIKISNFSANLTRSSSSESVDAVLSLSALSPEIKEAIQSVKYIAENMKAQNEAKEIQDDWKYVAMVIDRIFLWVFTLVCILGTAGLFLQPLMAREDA

Neuronal acetylcholine receptor subunit alpha-2, sequence (Q15822 whole entry): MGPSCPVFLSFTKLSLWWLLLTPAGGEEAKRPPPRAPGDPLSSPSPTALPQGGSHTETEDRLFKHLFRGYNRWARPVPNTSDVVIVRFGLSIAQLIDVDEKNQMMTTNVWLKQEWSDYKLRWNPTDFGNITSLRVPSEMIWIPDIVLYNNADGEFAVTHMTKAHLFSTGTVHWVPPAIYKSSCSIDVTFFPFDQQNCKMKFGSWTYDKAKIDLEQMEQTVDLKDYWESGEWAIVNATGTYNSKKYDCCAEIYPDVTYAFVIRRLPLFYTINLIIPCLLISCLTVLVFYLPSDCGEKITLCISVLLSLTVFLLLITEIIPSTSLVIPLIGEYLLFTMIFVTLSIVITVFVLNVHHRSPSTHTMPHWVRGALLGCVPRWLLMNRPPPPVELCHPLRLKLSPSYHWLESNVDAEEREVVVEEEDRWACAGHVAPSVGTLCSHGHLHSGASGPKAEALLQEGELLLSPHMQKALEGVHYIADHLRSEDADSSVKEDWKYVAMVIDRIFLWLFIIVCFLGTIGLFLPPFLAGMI
Neuronal acetylcholine receptor subunit alpha-4, sequence (P43681 whole entry): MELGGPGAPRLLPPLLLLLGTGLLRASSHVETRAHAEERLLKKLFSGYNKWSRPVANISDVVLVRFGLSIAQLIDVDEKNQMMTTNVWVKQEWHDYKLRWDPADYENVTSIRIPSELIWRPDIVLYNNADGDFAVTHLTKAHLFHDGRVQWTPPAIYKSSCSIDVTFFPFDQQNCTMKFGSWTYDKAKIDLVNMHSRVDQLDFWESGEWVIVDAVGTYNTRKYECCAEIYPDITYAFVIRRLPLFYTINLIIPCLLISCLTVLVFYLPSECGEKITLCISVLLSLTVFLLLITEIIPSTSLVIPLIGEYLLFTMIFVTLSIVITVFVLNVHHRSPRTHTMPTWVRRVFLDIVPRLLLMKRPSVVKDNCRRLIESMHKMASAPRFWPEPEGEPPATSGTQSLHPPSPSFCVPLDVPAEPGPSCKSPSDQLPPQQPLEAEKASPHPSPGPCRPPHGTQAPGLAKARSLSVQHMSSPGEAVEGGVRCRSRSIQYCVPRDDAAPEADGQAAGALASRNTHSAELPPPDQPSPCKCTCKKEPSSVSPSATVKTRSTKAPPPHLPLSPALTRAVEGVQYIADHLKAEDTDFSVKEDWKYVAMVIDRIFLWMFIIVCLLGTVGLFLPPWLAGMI

Row | SMILES | Ki [1] [µM] | Ki [2] [µM] | Ki [3] [µM]
1 | CO[C@@H]1CC=C2CCN3CCC4=C(CC(=O)OC4)[C@@]23C1 | 5.09 | – | –
2 | CN1CCC[C@H]1c1cccnc1 [(R,S)-nicotine] | 9.9 | – | –
3 | COc1cc2c3cc1Oc1cc(ccc1O)C[C@H]1c4c(cc(OC)c(O)c4Oc4ccc(cc4)C[C@@H]3N(C)CC2)CC[N+]1(C)C [CAS_57-94-3] | 2.26 | 0.86 | 0.73
4 | CNC1(C)C2CCC(C2)C1(C)C (stereo not given) [Methyl-(2,3,3-trimethyl-bicyclo[2.2.1]hept-2-yl)-amine(Mecamylamine)] | 3.06 | 0.56 | –
5 | O=c1cccc2n1C[C@H]1CNC[C@H]2C1 [(1S,9R)-7,11-diazatricyclo[7.3.1.0~2,7~]trideca-2,4-dien-6-one] | – | 0.515 | > 10
6 | C[N+]1(C)CCN(c2ccccc2)CC1 [DMPP] | > 10 | > 10 | > 10
7 | C[N+](C)(C)CCOC(=O)CCCCCCC(=O)OCC[N+](C)(C)C [NSC_123990] | 8.75 | 1.12 | > 10
